The text below walks through data of article PMC11539244, “Relative inhibitory activities of newly developed diazabicyclooctanes, boronic acid derivatives, and penicillin-based sulfone β-lactamase inhibitors against broad-spectrum AmpC β-lactamases” (Antimicrobial Agents and Chemotherapy, 2024).

In one experiment the test system is E. coli ATCC 25922. The experiment is described as follows: MIC by broth microdilution, E. coli ATCC 25922. The experiment is classed as cell-based. The settings on record: Escherichia coli. The method, then: (§1) MICs were determined in triplicate by broth microdilution (BMD) for CAZ and AMX, as well as their combinations with each β-lactamase inhibitor. CAZ, AMX, and CLA were purchased from Sigma-Aldrich (St. Louis, MO, USA). All others inhibitors (TAZ HY-W009168, AVI HY-14879, REL HY-16752, VAB HY-19930, NAC HY-109008, ZID HY-120859, TAN HY-109124, XER HY-136072, DUR HY-117974, EMT HY-103095) were purchased from MedChem Express (Luzern, Switzerland). The concentration of each β-lactamase inhibitor was chosen as the concentration used in the respective BL/BLI combination under development or commercially available, according to EUCAST or CLSI ([18], [19]). […] BMD assays were performed in cation-adjusted Mueller-Hinton (MH) broth (Bio-Rad, Marnes-la-Coquette, France) for all antibiotics or antibiotic combinations listed above, according to the EUCAST guidelines ([20]).
On the technique in general: Broth dilution looks for growth in wells or tubes with falling amounts of substance.

Experiment [1] has as its system E. coli ACC-1 (E. coli TOP10 recombinant strain). The experiment is described as follows: microbe, parasite or virus in culture. The experiment is classed as cell-based. The settings on record: Escherichia coli, read-out: MICs. The method, then: (§2) In order to assess the relative inhibitory activities of those BLI against AmpC β-lactamases, the corresponding blaampC genes without the original promoter sequences were amplified by PCR with specific primers, and corresponding amplicons were cloned into plasmid pUCp24, as described previously ([12], [13]). […] Cultures of E. coli TOP10 harboring recombinant plasmids and therefore producing the different AmpC tested were grown overnight at 37°C in Luria-Bertani agar medium containing amoxicillin (AMX) (50 µg/mL). The activity of the following acquired class C β-lactamases could therefore be evaluated, namely, ACC-1 (originally from Hafnia spp.), FOX-5 (from Aeromonas allosaccharophila), CMY-2 and CMY-42 (from Citrobacter spp.), DHA-1 (from Morganella morganii), ACT-7 and ACT-17 (from Enterobacter asburiae), MIR-17 (from Enterobacter roggenkampii), MOX-2 (from Aeromonas caviae), and LAT-1 (from Citrobacter portucalensis) ([5]). […] Altogether, these enzymes were chosen as representatives of clinically relevant class C β-lactamases being sources of intrinsic or acquired resistance to broad-spectrum β-lactams among most of the commonly identified Gram-negative bacteria in clinical practice.
as §1

Experiment [2] concerns E. coli ACT-17 (E. coli TOP10 recombinant strain). The experiment is described as follows: microbe, parasite or virus in culture. The experiment is classed as cell-based. The following applies: Escherichia coli, read-out: MICs. The procedure:
as §2, §1

The subject of experiment [3] is E. coli ACT-7 (E. coli TOP10 recombinant strain). The experiment is described as follows: microbe, parasite or virus in culture. The following applies: Escherichia coli, read-out: MICs. Type of experiment: cell-based. The procedure: as §2, §1
Experiment [4] relates to E. coli CMY-2 (E. coli TOP10 recombinant strain). In words: microbe, parasite or virus in culture. Type of experiment: cell-based. The following applies: Escherichia coli, read-out: MICs. The method, then:
as §2, §1

Experiment [5] concerns E. coli CMY-42 (E. coli TOP10 recombinant strain). In words: microbe, parasite or virus in culture. The experiment is classed as cell-based. The following applies: Escherichia coli, read-out: MICs. The procedure:
as §2, §1

For experiment [6], the system named is E. coli DHA-1 (E. coli TOP10 recombinant strain). The experiment is described as follows: microbe, parasite or virus in culture. The experiment is classed as cell-based. The following applies: Escherichia coli, read-out: MICs. The procedure:
as §2, §1

Experiment [7] concerns E. coli Ear-1 (E. coli TOP10 recombinant strain). The experiment is described as follows: microbe, parasite or virus in culture. The experiment is classed as cell-based. The following applies: Escherichia coli, read-out: MICs. The procedure: as §2, §1
Experiment [8] concerns E. coli FOX-5 (E. coli TOP10 recombinant strain). The experiment is described as follows: microbe, parasite or virus in culture. Type of experiment: cell-based. The following applies: Escherichia coli, read-out: MICs. The procedure:
as §2, §1

The test system of experiment [9] is E. coli LAT-1 (E. coli TOP10 recombinant strain). In words: microbe, parasite or virus in culture. The experiment is classed as cell-based. The settings on record: Escherichia coli, read-out: MICs. The method, then: as §2, §1
In experiment [10] the test system is E. coli MIR-17 (E. coli TOP10 recombinant strain). In words: microbe, parasite or virus in culture. The experiment is classed as cell-based. The following applies: Escherichia coli, read-out: MICs. The method, then: as §2, §1
For experiment [11], the system named is E. coli MOX-2 (E. coli TOP10 recombinant strain). In words: microbe, parasite or virus in culture. Type of experiment: cell-based. The settings on record: Escherichia coli, read-out: MICs. The procedure: as §2, §1
For experiment [12], the system named is E. coli PDC-1 (E. coli TOP10 recombinant strain). In words: microbe, parasite or virus in culture. The experiment is classed as cell-based. The settings on record: Escherichia coli, read-out: MICs. The procedure: as §2, §1
Experiment [13] concerns E. coli PDC-382 (E. coli TOP10 recombinant strain). In words: microbe, parasite or virus in culture. The settings on record: Escherichia coli, read-out: MICs. Type of experiment: cell-based. The procedure:
as §2, §1

Experiment [14] relates to E. coli PDC-5 (E. coli TOP10 recombinant strain). In words: microbe, parasite or virus in culture. The settings on record: Escherichia coli, read-out: MICs. Type of experiment: cell-based. The procedure:
as §2, §1

The subject of experiment [15] is E. coli SRT-2 (E. coli TOP10 recombinant strain). The experiment is described as follows: microbe, parasite or virus in culture. Type of experiment: cell-based. The following applies: Escherichia coli, read-out: MICs. The procedure: as §2, §1
Another experiment concerns E. coli TOP10. The experiment is described as follows: microbe, parasite or virus in culture. Type of experiment: cell-based. The following applies: Escherichia coli; E. coli TOP10; broth microdilution; β-lactam alone or with inhibitor at fixed conc.: CLA 2 µg/mL; TZB, AVI, REL, NAC, ZID, DUR, TAN 4 µg/mL; VAB, XER, EMT 8 µg/mL; read-out: MICs. The method, then: as §2, §1

The test system of experiment [16] is E. coli YRC-1 (E. coli TOP10 recombinant strain). In words: microbe, parasite or virus in culture. Type of experiment: cell-based. The following applies: Escherichia coli, read-out: MICs. The procedure:
as §2, §1

For experiment [17], the system named is E. coli ADC-50 (E. coli TOP10 recombinant strain). The experiment is described as follows: microbe, parasite or virus in culture. The following applies: Escherichia coli, read-out: MICs. The experiment is classed as cell-based, Escherichia coli. The procedure: as §2, §1
In experiment [18] the test system is Escherichia coli NCTC 13353 (CTX-M-15, OXA-1). In words: QC susceptibility testing (MIC), E. coli NCTC 13353. The experiment is classed as cell-based. The following applies: NCTC13353, read-out: Minimal Inhibitory Concentrations. The procedure:
as §1
(§3) Table S1. Susc eptibility testing of al l QC strains used in the study.
(§4) Mi n ima l In hibitory Concentrations (µg / ml) a […]

Experiment [19] deals with Klebsiella pneumoniae ATCC 700603 (SHV-18, OXA-2). The experiment is described as follows: microbe, parasite or virus in culture. Type of experiment: cell-based. The settings on record: ATCC700603, read-out: Minimal Inhibitory Concentrations. The procedure: as §1, §3, §4
The test system of experiment [20] is Pseudomonas aeruginosa ATCC 27853 (inducible AmpC). The experiment is described as follows: microbe, parasite or virus in culture. The experiment is classed as cell-based. The settings on record: ATCC27853, QC strain P. aeruginosa ATCC 27853, broth microdilution, Table S1, read-out: Minimal Inhibitory Concentrations. The method, then:
as §1, §3, §4

Read-outs that look alike come from different tables or passages of the source. A value given as a limit tells only on which side of the number the result lay.

For the compound `CC(C)(O/N=C(\C(=O)N[C@@H]1C(=O)N2C(C(=O)[O-])=C(C[n+]3ccccc3)CS[C@H]12)c1csc(N)n1)C(=O)O` [Ceftazidime, ceftazidime], the MIC in the experiment with E. coli ATCC 25922 (ATCC25922, E. coli ATCC 25922, β-lactam alone or with inhibitor at fixed conc.: CLA 2 µg/mL, TZB, AVI, REL, NAC, ZID, DUR, TAN 4 µg/mL, VAB, XER, EMT 8 µg/mL, read-out: MICs) was 0.06 µg/mL; with E. coli ATCC 25922 (ATCC25922, QC strain E. coli ATCC 25922, Table S1, read-out: Minimal Inhibitory Concentrations) it was 0.06 µg/mL; in [1], 32 µg/mL; in experiment [2] it was 32 µg/mL; in experiment [3], 64 µg/mL; in experiment [4] it was over 256 µg/mL. The MIC in [5] is over 256 µg/mL; in [6], 128 µg/mL; in experiment [7], over 256 µg/mL; in experiment [8] it was 8 µg/mL; in experiment [9] it was 64 µg/mL; in [10], 4 µg/mL. Also, the MIC amounted to 0.5 µg/mL in experiment [11]; 0.5 µg/mL in experiment [12]; 2 µg/mL in experiment [13]; 1 µg/mL in experiment [14]; 4 µg/mL in experiment [15]; 0.25 µg/mL with E. coli TOP10. The MIC in experiment [16] is 8 µg/mL; in experiment [17], 64 µg/mL; in experiment [18], 256 µg/mL; in [19], 64 µg/mL; in experiment [20], 2 µg/mL.
